Laboratory results published in patent US20190375778A1, “ADENOSINE DERIVATIVES FOR USE IN THE TREATMENT OF CANCER” (NuCana plc, priority 2016, published 2019).
pIC50: −log10 of the molar value. Read-outs that look alike come from different tables or passages of the source.

Experiments:
MCF7 = assay: CellTiterGlo viability assay, MCF7; format: cell-based; settings: for pIC50: read-out: IC50 MCF7
Protocol: (§1) In vitro viability assay were performed to assess the effects of compounds on cell viability in selected cell lines over ˜72 hrs using the CellTiterGlo (CTG, Promega-G7573) assay. The tests were performed in duplicates with treatment of compounds at 9 points, 3.16 folds titration in 96 well plates over ˜72 hrs. The compound starting concentrations were 198 μM. Cell viability assay using CellTiterGlo in 96-well plate were performed. Compound treatment 72 hrs, standard growth conditions, duplicates. Compounds were dissolved to 40 mM with thawed […]. Compounds were serially diluted at 3.16 fold in thawed DMSO, and warmed to 37° C. before being dissolved in media (2 μl+200 μl). After compounds were dissolved in media, media containing compounds were warmed to 37° C. in incubator and then compounds in media were added to cell plates (50 μl+50 μl) in duplicates. The compounds' final concentrations were from […] to 19.9 nM. All compound solubilities were checked and recorded again, then the plates were transferred to CO2 tissue culture incubator immediately and incubated for 3 days. DMSO final concentration is 0.5%.

BxPC-3 = assay: CellTiterGlo viability assay, BxPC-3; format: cell-based; settings: Homo sapiens, read-out: IC50 BxPC-3
Protocol: as §1

K562 = assay: CellTiterGlo viability assay, K562; format: cell-based; settings: for pIC50: read-out: IC50 K562
Summary of the method: (§2)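 Each cell line treated ~72 h under standard growth conditions, in duplicate, with 9-point 3.16-fold titrations; final concentrations from 198 μM down to 19.9 nM, 0.5% DMSO. Viability read by CellTiterGlo luminescence.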

HL-60 = assay: ATP ViaLight cytotoxicity assay, HL-60; format: cell-based; settings: Homo sapiens, HL-60, 72 h
Protocol: HL-60, CTS, and K-562 are leukaemia cell lines, which were obtained from the American Type Culture Collection (ATCC), Middlesex. HL-60 cell line is of acute promyelocytic leukaemia; CTS cell line is of acute myeloid leukaemia; and K-562 cell line is of chronic myeloid leukaemia.
HL-60, CTS, and K-562 cell lines were cultured in RPMI-1640 medium (Sigma Aldrich, UK), which was supplemented with 10% Fetal Bovine Serum (FBS) (PAA Laboratories), 1% amphotericin B (5.5 ml) and 1% penicillin/streptomycin (5.5 ml) (PAA Laboratories) and grown in flasks at 37° C. incubator with 5% CO2.
For inhibitor studies the cell lines were treated in the same way as described above but before treatment with drugs, a number of inhibitors were added: • 1) Nitrobenzylthioinosine (NBTI) (Sigma-Aldrich, St. Louis, Mo.) inhibits hENT1. • 2) A-134974 dihydrochloride hydrate (Sigma-Aldrich, St. Louis, Mo.) inhibits adenosine kinase. • 3) EHNA hydrochloride (Sigma-Aldrich, St. Louis, Mo.) inhibits adenosine deaminase.
ATP ViaLight™ plus assay kit (Lonza, USA: Product No. LT07-121) was used for treating the cells in luminescence compatible 96 well plates (initial concentration of cells was 1×10^4 cells/well) with 8-Cl-A and ProTides, concentrations: 0, 0.1, 0.5, 1, 5 and 10 μM were added to cells, respectively, followed by incubation for 72 hours at 37° C. incubator with 5% CO2. For inhibitor studies, […] concentration of each inhibitor was added before drugs and incubated for 72 hours at 37° C. with 5% CO2.
After incubation, 50 μl of cell lysis reagent was added to the 96 well plates to release the intracellular ATP, followed by 100 μl of ATP monitoring reagent (AMR). The luminescent values of each well were determined using FLUOstar OPTIMA microplate reader (BMG Labtech) which converted ATP into light by using luciferase enzyme.
(§3) The dose-response curves of cytotoxicity of the drugs was determined using non-linear regression analysis of percentage cell viability versus concentration and EC50 values were obtained. The intracellular assay was conducted in five repeats for each condition. Intracellular assay was determined using paired T test (two-tailed) analysis of 8-ChloroATP/ATP concentration and p values were obtained. Drug stability in human plasma was determined using two-way ANOVA analysis. For all the analysis, Prism Software program (GraphPad Software) was used.

HS445 = assay: CellTiterGlo viability assay, HS445; format: cell-based; settings: for pIC50: read-out: IC50 HS445
Protocol: as §1

Z138 = assay: CellTiterGlo viability assay, Z138; format: cell-based; settings: for pIC50: read-out: IC50 Z138
Protocol: as §1

NCI-H929 = assay: CellTiterGlo viability assay, NCI-H929; format: cell-based; settings: Homo sapiens, read-out: IC50 NCI-H929
Summary of the method: as §2

CCRFCEM = assay: CellTiterGlo viability assay, CCRFCEM; format: cell-based; settings: for pIC50: read-out: IC50 CCRFCEM
Summary of the method: as §2

MOLT-4 = assay: CellTiterGlo viability assay, MOLT-4; format: cell-based; settings: for pIC50: read-out: IC50 MOLT-4
Protocol: as §1

SW620 = assay: CellTiterGlo viability assay, SW620; format: cell-based; settings: Homo sapiens, read-out: IC50 SW620
Protocol: as §1

HEL92.1.7 = assay: CellTiterGlo viability assay, HEL92.1.7; format: cell-based; settings: for pIC50: read-out: IC50 HEL92.1.7
Summary of the method: as §2

HepG2 = assay: CellTiterGlo viability assay, HepG2; format: cell-based; settings: for pIC50: read-out: IC50 HepG2
Protocol: as §1

[1] = Drug stability in human plasma with or without EHNA; format: in vitro ADME
Protocol: 10 ml of human plasma sample (Sera laboratories, UK) was treated with 1 μM of EHNA. 1 ml from this was taken along with 1 μl of 20 µM concentration of each drug (8-Cl-A, compound A, compound B and compound D) which was added to new tubes and incubated for 2 hours at 37° C. with 5% CO2. After incubation, 100 μl of each sample was taken and 300 μl of 100% methanol was added and left on ice for 30 minutes. After 30 minutes, the mixture was centrifuged (14000 rpm, 4° C., 10 minutes), the supernatant was transferred to new tubes and evaporated under speed vac. Then the dried pellet was reconstituted in 100 μl of 10% Acetonitrile and transferred to LC-MS vials for injection in to the UPLC-MS/MS system.
as §3

THP-1 = assay: CellTiterGlo viability assay, THP-1; format: cell-based; settings: Homo sapiens, read-out: IC50 THP-1
Protocol: as §1

Jurkat = assay: CellTiterGlo viability assay, Jurkat; format: cell-based; settings: Homo sapiens, read-out: IC50 Jurkat
Protocol: as §1

SMILES: Nc1ncnc2c1nc(Cl)n2[C@@H]1O[C@H](COP(=O)(NCC(=O)OCc2ccccc2)Oc2ccccc2)[C@@H](O)[C@H]1O (mixture of isomers) [Compound B, Benzyl 2-(((((2R,3S,4R,5R)-5-(6-amino-8-chloro-9H-purin-9-yl)-3,4-dihydroxytetra-hydrofuran-2-yl)methoxy)(phenoxy)phosphoryl)amino)acetate]
- pIC50 (MCF7; Homo sapiens, MCF7, 72 h): 5.30 to 7.00
- pIC50 (BxPC-3; BXPC-3, 72 h): 4.82 to 5.30
- pIC50 (K562; Homo sapiens, K562, 72 h): 5.30 to 7.00
- EC50 (HL-60; Control (no inhibitor)): 0.49 µM
- EC50 (HL-60; with A-134974 (adenosine kinase inhibitor)): 14.6 µM
- EC50 (HL-60; with NBTI (hENT1 inhibitor)): 8.76 µM
- pIC50 (HS445; Hs 445, 72 h): 4.82 to 5.30
- pIC50 (Z138; Homo sapiens, Z-138, 72 h): 5.30 to 7.00
- pIC50 (NCI-H929; NCI-H929, 72 h): 4.82 to 5.30
- pIC50 (CCRFCEM; Homo sapiens, CCRF-CEM, 72 h): 5.30 to 7.00
- pIC50 (MOLT-4; Homo sapiens, MOLT-4, 72 h): 5.30 to 7.00
- pIC50 (SW620; SW-620, 72 h): 5.30 to 7.00
- pIC50 (HEL92.1.7; Homo sapiens, HEL 92.1.7, 72 h): 5.30 to 7.00
- pIC50 (HepG2; Homo sapiens, HepG2, 72 h): 5.30 to 7.00
- plasma concentration compared with the other compounds ([1]; human plasma, with or without EHNA): low plasma concentration
- pIC50 (THP-1; THP-1, 72 h): 5.30 to 7.00
- pIC50 (Jurkat; 72 h): 5.30 to 7.00

SMILES: Nc1ncnc2c1nc(Cl)n2[C@@H]1O[C@H](CO)[C@@H](O)[C@H]1O [8-chloroadenosine, 8-Chloroadenosine, reference compound]
- Top in. % MCF7 (MCF7): 79.6%
- pIC50 (MCF7; Homo sapiens, MCF7, CellTiterGlo, 72 hrs): 5.30 to 7.00
- EC50 (MCF7; Homo sapiens, MCF7, read-out: Ab EC50 (μM) MCF7): 1.33 µM
- pIC50 (BxPC-3; BXPC-3, CellTiterGlo, 72 hrs): 4.82 to 5.30
- Top in. % K562 (K562): 82.0%
- pIC50 (K562; Homo sapiens, K562, CellTiterGlo, 72 hrs): 5.30 to 7.00
- EC50 (K562; Homo sapiens, K562, read-out: Ab EC50 (μM) K562): 11.8 µM
- EC50 (HL-60; Control (no inhibitor)): 0.64 µM
- EC50 (HL-60; with NBTI (hENT1 inhibitor)): 0.96 µM
- Top in. % HS445 (HS445): 78.1%
- pIC50 (HS445; Hs 445, CellTiterGlo, 72 hrs): 4.82 to 5.30
- EC50 (HS445; Hs 445, read-out: Ab EC50 (μM) HS445): 4.5 µM
- Top in. % Z-138 (Z138): 88.7%
- pIC50 (Z138; Homo sapiens, Z-138, CellTiterGlo, 72 hrs): 5.30 to 7.00
- EC50 (Z138; Homo sapiens, Z-138, read-out: Ab EC50 (μM) Z-138): 1.44 µM
- pIC50 (NCI-H929; NCI-H929, CellTiterGlo, 72 hrs): 5.30 to 7.00
- Top in. % CCRF-CEM (CCRFCEM): 82.3%
- pIC50 (CCRFCEM; Homo sapiens, CCRF-CEM, CellTiterGlo, 72 hrs): 5.30 to 7.00
- EC50 (CCRFCEM; Homo sapiens, CCRF-CEM, read-out: Ab EC50 (μM) CCRF-CEM): 2.27 µM
- Top in. % MOLT-4 (MOLT-4): 76.0%
- pIC50 (MOLT-4; Homo sapiens, MOLT-4, CellTiterGlo, 72 hrs): 5.30 to 7.00
- EC50 (MOLT-4; Homo sapiens, MOLT-4, read-out: Ab EC50 (μM) MOLT-4): 3.27 µM
- pIC50 (SW620; SW-620, CellTiterGlo, 72 hrs): 5.30 to 7.00
- Top in. % HEL92.1.7 (HEL92.1.7): 96.4%
- pIC50 (HEL92.1.7; Homo sapiens, HEL 92.1.7, CellTiterGlo, 72 hrs): 5.30 to 7.00
- EC50 (HEL92.1.7; Homo sapiens, HEL 92.1.7, read-out: Ab EC50 (μM) HEL92.1.7): 2.2 µM
- Top in. % HepG2 (HepG2): 78.5%
- pIC50 (HepG2; Homo sapiens, HepG2, CellTiterGlo, 72 hrs): 5.30 to 7.00
- EC50 (HepG2; Homo sapiens, HepG2, read-out: Ab EC50 (μM) HepG2): 1.13 µM
- fold increase in human plasma concentration when adenosine deaminase was inhibited by EHNA ([1]; EHNA versus control): ~3 fold
- pIC50 (THP-1; THP-1, CellTiterGlo, 72 hrs): 5.30 to 7.00
- pIC50 (Jurkat; CellTiterGlo, 72 hrs): 5.30 to 7.00
